Data from the kinase profiling compilation of Christmann-Franck et al. (2016).

Columns and labels:
Test in all cases: radiometric filter-binding kinase assay
GCK (human) = GCK (human) (UniProt Q12851)
[1] = test system: PAK2 (human), Q13177 [T402E]
PRKCA (human) = PRKCA (human) (UniProt P17252)
MAPKAPK5 (human) = MAPKAPK5 (human) (UniProt Q8IW41)
MINK1 (human) = MINK1 (human) (UniProt Q8N4C8)
MAPK10 (human) = MAPK10 (human) (UniProt P53779)
MAPK12 (human) = MAPK12 (human) (UniProt P53778)
PRKACA (human) = PRKACA (human) (UniProt P17612)
PHKG1 (human) = PHKG1 (human) (UniProt Q16816)
EPHA2 (human) = EPHA2 (human) (UniProt P29317)
FLT1 (human) = FLT1 (human) (UniProt P17948)
SRPK1 (human) = SRPK1 (human) (UniProt Q96SB4)
PIM3 (human) = PIM3 (human) (UniProt Q86V86)
EEF2K (human) = EEF2K (human) (UniProt O00418)
CDK2 CCNA2 (human) = CDK2 CCNA2 (human) (UniProt P20248+P24941)
AURKB (human) = AURKB (human) (UniProt Q96GD4)
FGFR1 (human) = FGFR1 (human) (UniProt P11362)
CHEK1 (human) = CHEK1 (human) (UniProt O14757)
INSRR (human) = INSRR (human) (UniProt P14616)
MST4 (human) = MST4 (human) (UniProt Q9P289)
CSNK2A1 (human) = CSNK2A1 (human) (UniProt P68400)
ERBB4 (human) = ERBB4 (human) (UniProt Q15303)
MELK (human) = MELK (human) (UniProt Q14680)
RPS6KA3 KD1 KD2 (human) = RPS6KA3 KD1 KD2 (human) (UniProt P51812)
DYRK2 (human) = DYRK2 (human) (UniProt Q92630)
RIPK2 (human) = RIPK2 (human) (UniProt O43353)
MAPK15 (human) = MAPK15 (human) (UniProt Q8TD08)
PIM2 (human) = PIM2 (human) (UniProt Q9P1W9)
MAP2K2 (human) = MAP2K2 (human) (UniProt P36507)
[2] = test system: SGK1 (human), O00141 [S422D]
MAP2K6 (human) = MAP2K6 (human) (UniProt P52564)
BRSK1 (human) = BRSK1 (human) (UniProt Q8TDC3); settings: compound 10.0 µM
TAOK1 (human) = TAOK1 (human) (UniProt Q7L7X3)
MAPKAPK3 (human) = MAPKAPK3 (human) (UniProt Q16644)
AURKA (human) = AURKA (human) (UniProt O14965)

FGFR1 (human), sequence (P11362 whole entry, looked up): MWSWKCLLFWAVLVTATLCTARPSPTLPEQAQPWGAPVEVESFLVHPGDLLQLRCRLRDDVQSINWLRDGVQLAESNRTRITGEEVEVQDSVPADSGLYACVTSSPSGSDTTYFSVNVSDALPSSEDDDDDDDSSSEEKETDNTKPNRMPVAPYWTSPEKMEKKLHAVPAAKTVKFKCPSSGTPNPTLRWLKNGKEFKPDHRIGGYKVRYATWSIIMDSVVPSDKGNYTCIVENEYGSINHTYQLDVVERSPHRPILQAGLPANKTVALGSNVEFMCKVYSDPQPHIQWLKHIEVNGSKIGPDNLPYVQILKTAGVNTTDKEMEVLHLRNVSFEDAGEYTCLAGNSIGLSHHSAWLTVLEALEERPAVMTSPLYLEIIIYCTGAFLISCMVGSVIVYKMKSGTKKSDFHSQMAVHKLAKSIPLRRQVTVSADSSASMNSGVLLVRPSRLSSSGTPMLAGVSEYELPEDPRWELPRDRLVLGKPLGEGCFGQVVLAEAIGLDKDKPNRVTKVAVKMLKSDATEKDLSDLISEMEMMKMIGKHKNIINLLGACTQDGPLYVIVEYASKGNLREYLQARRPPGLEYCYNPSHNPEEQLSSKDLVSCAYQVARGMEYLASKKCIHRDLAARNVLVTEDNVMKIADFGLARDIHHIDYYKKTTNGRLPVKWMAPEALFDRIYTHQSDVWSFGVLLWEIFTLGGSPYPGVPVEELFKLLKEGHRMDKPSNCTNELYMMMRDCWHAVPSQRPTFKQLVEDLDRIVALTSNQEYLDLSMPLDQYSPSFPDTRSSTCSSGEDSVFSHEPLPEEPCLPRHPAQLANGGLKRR
RIPK2 (human), sequence (O43353 whole entry, looked up): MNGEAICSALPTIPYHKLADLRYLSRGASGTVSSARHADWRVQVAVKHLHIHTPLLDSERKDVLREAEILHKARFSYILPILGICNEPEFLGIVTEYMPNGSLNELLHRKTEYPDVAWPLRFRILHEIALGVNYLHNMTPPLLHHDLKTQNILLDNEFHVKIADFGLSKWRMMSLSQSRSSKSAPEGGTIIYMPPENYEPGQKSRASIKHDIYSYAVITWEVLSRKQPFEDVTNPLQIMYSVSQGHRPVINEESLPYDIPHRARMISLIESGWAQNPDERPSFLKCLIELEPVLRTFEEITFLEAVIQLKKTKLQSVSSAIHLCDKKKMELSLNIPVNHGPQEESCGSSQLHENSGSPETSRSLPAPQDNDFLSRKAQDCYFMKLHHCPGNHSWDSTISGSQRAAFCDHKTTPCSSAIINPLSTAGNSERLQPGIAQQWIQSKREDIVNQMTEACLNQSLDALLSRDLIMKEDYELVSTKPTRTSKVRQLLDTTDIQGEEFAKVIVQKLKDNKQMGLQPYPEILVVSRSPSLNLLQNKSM
RPS6KA3 KD1 KD2 (human), sequence (P51812 whole entry, looked up): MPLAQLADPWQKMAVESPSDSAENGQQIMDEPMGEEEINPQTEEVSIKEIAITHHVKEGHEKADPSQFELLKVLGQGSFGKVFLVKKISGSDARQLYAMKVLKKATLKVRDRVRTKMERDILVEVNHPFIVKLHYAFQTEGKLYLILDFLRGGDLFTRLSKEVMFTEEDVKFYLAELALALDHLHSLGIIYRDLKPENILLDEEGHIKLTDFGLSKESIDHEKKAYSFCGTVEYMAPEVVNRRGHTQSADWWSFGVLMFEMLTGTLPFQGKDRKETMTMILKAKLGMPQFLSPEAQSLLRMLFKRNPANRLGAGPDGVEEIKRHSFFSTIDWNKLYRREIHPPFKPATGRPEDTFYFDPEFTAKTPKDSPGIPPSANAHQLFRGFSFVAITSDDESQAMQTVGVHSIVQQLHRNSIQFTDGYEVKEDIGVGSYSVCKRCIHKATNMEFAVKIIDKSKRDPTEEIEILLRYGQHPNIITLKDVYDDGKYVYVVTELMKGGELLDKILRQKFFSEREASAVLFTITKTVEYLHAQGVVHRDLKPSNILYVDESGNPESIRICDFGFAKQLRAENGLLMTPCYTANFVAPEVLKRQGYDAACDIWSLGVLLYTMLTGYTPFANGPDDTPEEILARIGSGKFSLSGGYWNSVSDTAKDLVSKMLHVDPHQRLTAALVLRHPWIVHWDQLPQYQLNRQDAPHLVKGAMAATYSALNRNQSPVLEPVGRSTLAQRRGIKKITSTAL
EPHA2 (human), sequence (P29317 whole entry, looked up): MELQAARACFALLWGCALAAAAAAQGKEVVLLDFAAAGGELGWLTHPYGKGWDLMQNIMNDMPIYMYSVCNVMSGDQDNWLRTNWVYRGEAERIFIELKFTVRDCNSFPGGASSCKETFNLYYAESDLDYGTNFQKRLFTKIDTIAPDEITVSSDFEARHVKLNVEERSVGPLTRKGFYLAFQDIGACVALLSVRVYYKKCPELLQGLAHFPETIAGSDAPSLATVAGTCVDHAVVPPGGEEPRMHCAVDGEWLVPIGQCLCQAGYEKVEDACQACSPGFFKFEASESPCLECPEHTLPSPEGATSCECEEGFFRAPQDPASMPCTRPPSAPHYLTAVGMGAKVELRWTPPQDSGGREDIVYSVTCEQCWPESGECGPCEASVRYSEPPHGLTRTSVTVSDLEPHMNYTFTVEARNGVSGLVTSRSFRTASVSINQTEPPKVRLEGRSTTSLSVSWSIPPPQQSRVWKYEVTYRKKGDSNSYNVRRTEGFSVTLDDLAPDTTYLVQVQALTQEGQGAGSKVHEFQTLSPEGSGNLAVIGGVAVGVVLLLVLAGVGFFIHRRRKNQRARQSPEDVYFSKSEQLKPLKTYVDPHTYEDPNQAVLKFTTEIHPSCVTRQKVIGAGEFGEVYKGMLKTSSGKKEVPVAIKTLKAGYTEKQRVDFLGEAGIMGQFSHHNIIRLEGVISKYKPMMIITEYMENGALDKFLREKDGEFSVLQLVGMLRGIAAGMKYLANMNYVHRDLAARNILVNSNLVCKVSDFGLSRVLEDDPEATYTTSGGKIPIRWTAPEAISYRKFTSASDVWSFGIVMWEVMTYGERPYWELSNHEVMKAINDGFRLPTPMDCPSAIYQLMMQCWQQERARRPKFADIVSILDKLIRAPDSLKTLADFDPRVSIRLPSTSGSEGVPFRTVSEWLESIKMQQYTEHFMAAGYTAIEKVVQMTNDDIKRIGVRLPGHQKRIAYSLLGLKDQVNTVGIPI
MAP2K6 (human), sequence (P52564 whole entry, looked up): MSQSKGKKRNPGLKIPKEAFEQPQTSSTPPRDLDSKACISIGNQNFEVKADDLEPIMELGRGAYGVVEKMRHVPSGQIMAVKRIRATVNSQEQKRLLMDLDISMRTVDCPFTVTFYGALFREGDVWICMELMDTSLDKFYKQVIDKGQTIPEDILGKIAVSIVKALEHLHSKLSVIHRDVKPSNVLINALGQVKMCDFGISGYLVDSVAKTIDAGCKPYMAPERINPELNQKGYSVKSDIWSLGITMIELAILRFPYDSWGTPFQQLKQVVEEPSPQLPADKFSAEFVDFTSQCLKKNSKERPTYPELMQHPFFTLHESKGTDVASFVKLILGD
CHEK1 (human), sequence (O14757 whole entry, looked up): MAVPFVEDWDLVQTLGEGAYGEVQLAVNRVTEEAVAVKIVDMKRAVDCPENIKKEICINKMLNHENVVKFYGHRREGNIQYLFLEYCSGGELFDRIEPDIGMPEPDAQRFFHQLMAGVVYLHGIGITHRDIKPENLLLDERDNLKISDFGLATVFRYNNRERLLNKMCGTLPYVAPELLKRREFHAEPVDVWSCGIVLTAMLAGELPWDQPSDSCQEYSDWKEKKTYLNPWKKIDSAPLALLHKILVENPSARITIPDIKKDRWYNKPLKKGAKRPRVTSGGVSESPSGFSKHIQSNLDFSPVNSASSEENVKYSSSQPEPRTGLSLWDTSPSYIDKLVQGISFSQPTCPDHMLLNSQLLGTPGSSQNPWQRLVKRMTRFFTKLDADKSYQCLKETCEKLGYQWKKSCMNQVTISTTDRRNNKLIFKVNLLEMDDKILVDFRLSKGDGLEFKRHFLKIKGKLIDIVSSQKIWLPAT
CSNK2A1 (human), sequence (P68400 whole entry, looked up): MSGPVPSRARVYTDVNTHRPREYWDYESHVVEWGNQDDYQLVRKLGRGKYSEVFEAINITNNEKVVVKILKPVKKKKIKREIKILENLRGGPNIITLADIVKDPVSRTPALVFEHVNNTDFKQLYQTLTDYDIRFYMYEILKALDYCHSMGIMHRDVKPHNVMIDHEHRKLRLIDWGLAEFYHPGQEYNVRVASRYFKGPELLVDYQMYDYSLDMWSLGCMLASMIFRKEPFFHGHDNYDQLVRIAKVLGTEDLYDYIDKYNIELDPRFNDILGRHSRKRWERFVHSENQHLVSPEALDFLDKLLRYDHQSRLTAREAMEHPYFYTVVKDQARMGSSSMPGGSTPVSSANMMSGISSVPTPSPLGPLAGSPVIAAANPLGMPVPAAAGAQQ
MAPKAPK5 (human), sequence (Q8IW41 whole entry, looked up): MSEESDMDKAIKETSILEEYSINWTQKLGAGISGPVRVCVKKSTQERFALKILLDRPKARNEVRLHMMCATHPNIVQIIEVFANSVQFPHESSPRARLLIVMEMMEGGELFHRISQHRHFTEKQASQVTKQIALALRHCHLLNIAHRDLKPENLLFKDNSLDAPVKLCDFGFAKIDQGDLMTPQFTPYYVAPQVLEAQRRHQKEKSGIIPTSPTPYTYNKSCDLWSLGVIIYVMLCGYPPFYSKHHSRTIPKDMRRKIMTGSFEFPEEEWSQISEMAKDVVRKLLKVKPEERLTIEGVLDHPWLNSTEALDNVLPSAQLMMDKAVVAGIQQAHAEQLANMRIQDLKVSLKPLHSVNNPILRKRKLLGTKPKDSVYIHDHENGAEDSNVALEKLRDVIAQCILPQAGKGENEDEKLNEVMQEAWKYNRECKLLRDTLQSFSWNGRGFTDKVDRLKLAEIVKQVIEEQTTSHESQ

residual activity (GCK (human); compound 0.1 µM): 98%
residual activity (GCK (human); compound 1.0 µM): 77%
residual activity (GCK (human); compound 10.0 µM): 38%
residual activity ([1]; compound 0.1 µM): 87%
residual activity ([1]; compound 1.0 µM): 72%
residual activity ([1]; compound 10.0 µM): 55%
residual activity (PRKCA (human); compound 0.1 µM): 99%
residual activity (PRKCA (human); compound 10.0 µM): 100%
residual activity (MAPKAPK5 (human); compound 0.1 µM): 101%
residual activity (MAPKAPK5 (human); compound 1.0 µM): 107%
residual activity (MAPKAPK5 (human); compound 10.0 µM): 83%
residual activity (MINK1 (human); compound 0.1 µM): 90%
residual activity (MINK1 (human); compound 1.0 µM): 91%
residual activity (MINK1 (human); compound 10.0 µM): 57%
residual activity (MAPK10 (human); compound 0.1 µM): 84%
residual activity (MAPK10 (human); compound 1.0 µM): 96%
residual activity (MAPK10 (human); compound 10.0 µM): 86%
residual activity (MAPK12 (human); compound 0.1 µM): 89%
residual activity (MAPK12 (human); compound 1.0 µM): 112%
residual activity (PRKACA (human); compound 0.1 µM): 89%
residual activity (PRKACA (human); compound 1.0 µM): 101%
residual activity (PRKACA (human); compound 10.0 µM): 97%
residual activity (PHKG1 (human); compound 1.0 µM): 104%
residual activity (PHKG1 (human); compound 10.0 µM): 92%
residual activity (EPHA2 (human); compound 0.1 µM): 91%
residual activity (EPHA2 (human); compound 1.0 µM): 98%
residual activity (EPHA2 (human); compound 10.0 µM): 64%
residual activity (FLT1 (human); compound 0.1 µM): 40%
residual activity (FLT1 (human); compound 1.0 µM): 7%
residual activity (FLT1 (human); compound 10.0 µM): 2%
residual activity (SRPK1 (human); compound 0.1 µM): 100%
residual activity (SRPK1 (human); compound 1.0 µM): 115%
residual activity (SRPK1 (human); compound 10.0 µM): 99%
residual activity (PIM3 (human); compound 0.1 µM): 94%
residual activity (PIM3 (human); compound 1.0 µM): 96%
residual activity (PIM3 (human); compound 10.0 µM): 88%
residual activity (EEF2K (human); compound 0.1 µM): 88%
residual activity (EEF2K (human); compound 10.0 µM): 90%
residual activity (CDK2 CCNA2 (human); compound 0.1 µM): 89%
residual activity (CDK2 CCNA2 (human); compound 1.0 µM): 99%
residual activity (CDK2 CCNA2 (human); compound 10.0 µM): 84%
residual activity (AURKB (human); compound 0.1 µM): 96%
residual activity (AURKB (human); compound 1.0 µM): 61%
residual activity (AURKB (human); compound 10.0 µM): 13%
residual activity (FGFR1 (human); compound 0.1 µM): 52%
residual activity (FGFR1 (human); compound 1.0 µM): 24%
residual activity (FGFR1 (human); compound 10.0 µM): 15%
residual activity (CHEK1 (human); compound 0.1 µM): 76%
residual activity (CHEK1 (human); compound 1.0 µM): 93%
residual activity (CHEK1 (human); compound 10.0 µM): 77%
residual activity (INSRR (human); compound 0.1 µM): 94%
residual activity (INSRR (human); compound 1.0 µM): 101%
residual activity (INSRR (human); compound 10.0 µM): 29%
residual activity (MST4 (human); compound 0.1 µM): 100%
residual activity (MST4 (human); compound 1.0 µM): 73%
residual activity (MST4 (human); compound 10.0 µM): 27%
residual activity (CSNK2A1 (human); compound 0.1 µM): 104%
residual activity (CSNK2A1 (human); compound 1.0 µM): 115%
residual activity (CSNK2A1 (human); compound 10.0 µM): 111%
residual activity (ERBB4 (human); compound 0.1 µM): 7%
residual activity (ERBB4 (human); compound 1.0 µM): 8%
residual activity (ERBB4 (human); compound 10.0 µM): 5%
residual activity (MELK (human); compound 0.1 µM): 69%
residual activity (MELK (human); compound 10.0 µM): 56%
residual activity (RPS6KA3 KD1 KD2 (human); compound 0.1 µM): 103%
residual activity (RPS6KA3 KD1 KD2 (human); compound 1.0 µM): 106%
residual activity (RPS6KA3 KD1 KD2 (human); compound 10.0 µM): 68%
residual activity (DYRK2 (human); compound 0.1 µM): 83%
residual activity (DYRK2 (human); compound 1.0 µM): 105%
residual activity (DYRK2 (human); compound 10.0 µM): 79%
residual activity (RIPK2 (human); compound 0.1 µM): 21%
residual activity (RIPK2 (human); compound 1.0 µM): 5%
residual activity (RIPK2 (human); compound 10.0 µM): 2%
residual activity (PIM2 (human); compound 0.1 µM): 99%
residual activity (PIM2 (human); compound 1.0 µM): 100%
residual activity (PIM2 (human); compound 10.0 µM): 97%
residual activity (MAP2K2 (human); compound 0.1 µM): 94%
residual activity (MAP2K2 (human); compound 1.0 µM): 94%
residual activity (MAP2K2 (human); compound 10.0 µM): 63%
residual activity ([2]; compound 0.1 µM): 95%
residual activity ([2]; compound 1.0 µM): 107%
residual activity ([2]; compound 10.0 µM): 84%
residual activity (MAP2K6 (human); compound 0.1 µM): 82%
residual activity (MAP2K6 (human); compound 1.0 µM): 97%
residual activity (MAP2K6 (human); compound 10.0 µM): 61%
residual activity (BRSK1 (human)): 49%
residual activity (TAOK1 (human); compound 0.1 µM): 113%
residual activity (TAOK1 (human); compound 1.0 µM): 119%
residual activity (MAPKAPK3 (human); compound 0.1 µM): 109%
residual activity (MAPKAPK3 (human); compound 1.0 µM): 109%
residual activity (AURKA (human); compound 0.1 µM): 92%
residual activity (AURKA (human); compound 1.0 µM): 57%
residual activity (AURKA (human); compound 10.0 µM): 10%
Compound: C=CC(=O)N1CCC[C@@H](n2nc(-c3ccc(Oc4ccccc4)cc3)c3c(N)ncnc32)C1
residual activity (MAPK15 (human); compound 0.1 µM): 85%
residual activity (MAPK15 (human); compound 1.0 µM): 98%
residual activity (MAPK15 (human); compound 10.0 µM): 74%
